Measurements as given in patent US7919508B2, “3-piperidinylisochroman-5-ols as dopamine agonists” (Aventis Pharmaceuticals Inc., priority 2004, dated 2011).
Where a name gives a salt, the structure may show the parent alone.

Assays:
[1] = molecular target: T1, human dopamine D1 receptor (Homo sapiens, UniProt P21728); test: [3H]-SCH-23390 binding to cloned human dopamine D1 receptors (CHO cell membranes); details: competitive binding, [3H]-SCH-23390, cloned human D1 in CHO membranes; read-out: D1 affinity Ki
T1 construct: A 1.4 Kb Hind III to Xho I fragment was subcloned into the vector pMMLV; expressed in transfected cells; host or cells: CHO cells, clone CHO-D1M#9 (plasmid pHD1MMLV), membranes

D1 receptor = molecular target: T2, D1 receptor (Homo sapiens, UniProt P21728); test: D1 Activation Adenylyl Cyclase Assay (cAMP FlashPlate, D1 transfected CHO cell line); assay type: cell-based; details: agonist activity at the D1 receptor, adenylate cyclase assay, D1 transfected CHO cell line; read-out: D1 EC50
T2 construct: expressed in transfected cells; host or cells: D1 transfected CHO cell line
Protocol: D1 Activation Adenylyl Cyclase Assay
Purpose: To measure D1-agonist activity compounds using an Adenylyl Cyclase Activation Flash Plate Assay from NEN.
Buffers: Activation and Detection buffers are provided from NEN: Catalog # SMP004A.
Maintenance of D1 transfected CHO cell line: • 1. Cells are grown in a 150 cc flask in an incubator at 37° C. with 5% CO2 for 2-3 days (4 maximum) until confluent. • 2. Aspirate off old media (Cells adhere to the plastic flask), wash 2× with sterile PBS. • 3. Add ˜5 mL of Trypsin EDTA (enough to cover bottom of the flask) for 5 min. at RT. • 4. Stop digestion with 15 mL of Media (Ham's F12 plus 10% FBS, 1% P/S, 400 μg/mL G418). • Bang flask on counter to release them from the flask. • 5. Add 2 mL of this to 30 mL of Media in a fresh flask. Return to incubator. Preparation of Cells for Assay: • 1. Loosen the cells with 5 mL Vercine (EDTA)/flask for 10 minutes in incubator. • 2. Add 20 mL of Serum-free media/flask. Transfer to 50-mL Falcon tube. • 3. Spin down cells at 1000 RPM for 5 minutes at 4° C. • 4. Aspirate off old media and resuspend in 5 mL of Serum-free media/plate to be done. • 5. Dilute 10 μL 1/10 in 90 μL Trypan Blue solution and count with a hemocytometer. • Count (live cells only) all four areas and average them. • Count X 10^5 equals cells/mL (including accounting for dilution in Trypan). • 6. Dilute to 50,000 cells/50 μL (1,000,000 cells/mL) in Serum-free media. • 7. Put 50 μL/well in Rows 3-12 of a cAMP FlashPlate. • 8. Put in incubator at 37° C. for 2-4 hours, to allow cells to recover and attach. Adenylyl Cyclase Activation Assay: • 1. Prepare the cAMP standards: • Add 130 μL/well of stimulation buffer to each row of a separate 96-well “standard” plate, 2 columns/plate. • Dilute stock cAMP standard 1/5 with stimulation buffer (final concentration is 1000 pmol/mL). Add 130 μL of this to row A. • Make 1/2 serial dilutions by adding 130 μL from each well to the next (A-G), mixing between each. • Final concentrations are: • A: 500, B: 250, C: 125, D: 62.5, E: 31.25, F: 15.6, G: 7.8, H: 0 pmol/mL. • Place 100 μL from each row from 2 columns of the standard plate into columns 1 and 2 of each “reaction” plate. • 2. Prepare the negative and positive control in the “reaction” plate: • Column 3, rows A-D, add 100 μL stimulation buffer (negative control). • Column 3, rows E-H, add 90 μL of stimulation buffer plus 10 μL of 200 μM APO (positive control, […]). (10 μL 10 mM APO, plus 490 μL stim. buffer=1/50 dilution.) • 3. Prepare the agonist compound dilutions in the “compound” plate: • Add 80 μL of stimulation buffer to row A (One column for each compound), and 90 μL of stimulation buffer to rows B—H. • Add 20 μL of 10 mM of each compound to appropriate row A. • Make 1/10 serial dilutions by adding 10 μL from each well to the next (A-H), mixing between each. • 4. […]. Prepare Detection/Stop buffer by adding 90 μL/plate of cAMP-^125I to 10 mL/plate plus 6 mL (for dead volume) of detection buffer. Steps 6-8 performed with the Multi-Mek. • 6. Add 50 μL to each well of the FlashPlate with CHO cells set up earlier. • 7. Incubate at RT for 8 minutes. • 8. Stop reaction by adding 100 μL of detection/stop buffer to each well. • 9. Cover with plastic film and incubate at RT for 16-24 hours (don't wait more than 24 hours). • 10. Count in a Packard Top-Count. Calculations: • 1. Raw signals generated by cAMP standard wells, without cells, are averaged at each cAMP concentration and converted to % B/Bo by dividing the raw signal at each cAMP concentration by the raw signal with no cAMP added. • 2. These values are used to generate a standard curve by plotting cAMP concentration versus % B/Bo. • 3. Raw data for each compound at each concentration is also converted to % B/B. by the same method. • 4. These values are then converted to pmol cAMP/mL using the standard curve. • 5. These cAMP values are then averaged across the three replicates for each compound concentration. • 6. […]

[2] = molecular target: human dopamine D2Long (D2L) receptors (Homo sapiens, UniProt P14416)
human dopamine D2Long (D2L) receptors, sequence (P14416 whole entry): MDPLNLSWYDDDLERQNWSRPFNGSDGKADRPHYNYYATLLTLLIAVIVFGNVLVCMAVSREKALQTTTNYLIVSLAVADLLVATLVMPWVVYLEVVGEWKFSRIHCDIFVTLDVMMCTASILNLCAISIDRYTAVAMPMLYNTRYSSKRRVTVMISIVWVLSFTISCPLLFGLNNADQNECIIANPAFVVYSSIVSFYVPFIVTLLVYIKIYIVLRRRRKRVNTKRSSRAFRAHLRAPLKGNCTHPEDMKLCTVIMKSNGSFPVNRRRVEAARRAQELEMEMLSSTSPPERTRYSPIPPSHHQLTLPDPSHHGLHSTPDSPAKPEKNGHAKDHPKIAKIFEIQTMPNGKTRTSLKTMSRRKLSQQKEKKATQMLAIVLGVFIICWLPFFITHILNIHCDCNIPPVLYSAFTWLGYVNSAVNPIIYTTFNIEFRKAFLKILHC
Protocol: [N-Methyl-^3H]Spiroperidol Binding to Cloned Human Dopamine D2Long Receptors
This assay measures the in vitro activity of drugs on cloned human dopamine D2Long (D2L) receptors and predicts the direct dopamine-displacing properties of neuropsychiatric, cardiovascular and renal agents at human dopamine D2 receptors.
Cells were maintained in Ham's F12+10% Fetal Bovine Serum+Penicillin/Streptomycin (100 U/ml/100 μg/ml)+G418 (400 μg/ml) medium and were split using Trypsin-EDTA (1 ml/plate, room temperature for ˜2 min. or until cells have lifted off plates). • 2. […] Plates are incubated at 37° C.+5% CO2 for ˜3 days or until cells were confluent.
Cells are harvested by mechanical scraping, washed using PBS collected in 250 ml Corning polypropylene centrifuge tubes, spun down and resuspended in dH2O (final volume per harvest approximately 60 ml). Protein determination is made according to the method of Lowry (Biorad DC Assay Kit). Following the determination of the protein concentration, the protein is diluted into distilled water with 10% DMSO to the appropriate volume based on expression levels (Bmax). The concentrated protein is aliquoted into 1.5 ml screw top eppendorf tubes and placed into a −80° C. freezer.
Assay Requirement: 1 cryovial per two 96 well plates
0.5M Tris Wash Buffer, pH 7.7 • a) 44.4 g Tris HCl • 26.5 g Tris Base • q.s. to 1 Liter (0.5 M Tris buffer, pH 7.7 at 37° C.) • b) make a 1:10 dilution in distilled H2O (0.05 M. Tris buffer, pH 7.7) • 2. Tris Buffer containing physiological salts • a) Stock buffer • NaCl 7.014 g • KCl 0.372 g • CaCl2 0.222 g • MgCl2 0.204 g • q.s. To 100 ml with 0.5 M. Tris Buffer • b) Dilute 1:10 in distilled H2O • This yields 0.05 M. Tris HCl, pH 7.7, containing NaCl (120 mM), KCl (5 mM), CaCl2 (2 mM) and MgCl2 (1 mM) • Optional: add 0.1% ascorbic acid and check pH (in assays with compounds that may oxidize. • c) 1.0% polyethyleneimine stock in 0.5M Tris (reagent 1.a) • Dilute 1:10 in distilled H2O Binding Assay • 750 μl Tissue • 150 μl [^3H]NMSP • 100 μl vehicle (for total binding) or 30 μM (−)
eticlopride (for nonspecific binding) or appropriate drug concentration.
The 96-Well Packard Unifilters GF/B are incubated for >1 h at 25° C. in 0.1% polyethylenimine. The cold tissue is added last and mixed on a orbital shaker for a few seconds and is then incubated at 37° C. for 30 min in a shaking water bath. The assay is stopped by rapid filtration through Packard Unifilter plates. The filter membranes are then washed with 15 ml of ice-cold 0.05 M Tris buffer. The filters are then dried (˜15 min. under a heat lamp or incubated for 15 min. in a 60° C. oven) and a bottom seal is applied. Then 40 μl of Packard Microscint 20 scintillation cocktail are added and a permanent topseal (Type P) is applied and heat sealed. The plates are placed in a Packard Topcount.
Specific binding is defined as the difference between total binding and the binding in the presence of 3 μM S-(−)-eticlopride. Total binding is approximately 10% of the total added ligand. […] The percent inhibition at each drug concentration is the mean of duplicate determinations.

T2 sequence (P21728 whole entry): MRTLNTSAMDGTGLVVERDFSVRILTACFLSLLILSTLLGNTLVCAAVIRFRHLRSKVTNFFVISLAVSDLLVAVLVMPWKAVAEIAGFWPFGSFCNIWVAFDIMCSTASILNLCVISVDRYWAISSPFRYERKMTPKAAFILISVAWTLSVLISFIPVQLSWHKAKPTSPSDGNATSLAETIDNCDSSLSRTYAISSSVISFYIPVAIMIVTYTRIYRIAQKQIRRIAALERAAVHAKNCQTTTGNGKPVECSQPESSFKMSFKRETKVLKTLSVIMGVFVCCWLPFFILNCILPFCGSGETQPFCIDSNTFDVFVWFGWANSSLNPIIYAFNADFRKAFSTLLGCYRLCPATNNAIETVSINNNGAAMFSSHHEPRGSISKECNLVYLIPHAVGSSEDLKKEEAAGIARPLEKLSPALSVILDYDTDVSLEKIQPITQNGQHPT
T1 sequence (P21728 whole entry, the tested form may be a part): as the sequence (P21728 whole entry) above

Row | Compound | Ki [1] | EC50 (D1 receptor) | Ki [2]
1 | Cc1ccc2c(c1O)C[C@@H](C1CCN(Cc3ccc(O)cc3)CC1)O[C@H]2CN [Example 62, (1R,3S)-1-Aminomethyl-3-[1-(4-hydroxy-benzyl)-piperidin-4-yl]-6-methyl-isochroman-5-ol dihydrochloride] | 46.1 nM | 14 nM | –
2 | Cc1ccc2c(c1O)C[C@@H](C1CCN(Cc3ccc(Cl)cc3)CC1)O[C@H]2CN [Example 58, (1R,3S)-1-Aminomethyl-3-[1-(4-chloro-benzyl)-piperidin-4-yl]-6-methyl-isochroman-5-ol dihydrochloride] | 52 nM | 10 nM | –
3 | Cc1ccc2c(c1O)C[C@@H](C1CCN(CCC(C)c3ccccc3)CC1)O[C@H]2CN (stereo partly drawn) [Example 27, (1R,3S)-1-Aminomethyl-6-methyl-3-[1-(3-phenyl-butyl)-piperidin-4-yl]-isochroman-5-ol dihydrobromide] | – | 280 nM | –
4 | Cc1ccc(CN2CCC([C@@H]3Cc4c(ccc(C)c4O)[C@H](CN)O3)CC2)cc1 [Example 66, (1R,3S)-1-Aminomethyl-6-methyl-3-[1-(4-methyl-benzyl)-piperidin-4-yl]-isochroman-5-ol dihydrochloride] | 75.7 nM | 6 nM | –
5 | Cc1ccc2c(c1O)C[C@@H](C1CCN(CCC(C)NC(=O)c3ccc(Br)cc3)CC1)O[C@H]2CN (stereo partly drawn) [Example 23, N-{3-[4-((1R,3S)-1-Aminomethyl-5-hydroxy-6-methyl-isochroman-3-yl)-piperidin-1-yl]-1-methyl-propyl}-4-bromo-benzamide dihydrochloride] | 91.8 nM | 59 nM | –
6 | Cc1ccc2c(c1O)C[C@@H](C1CCN(Cc3ccccc3)CC1)O[C@H]2CN [Example 93, (1R,3S)-1-Aminomethyl-3-[1-(benzyl)-piperidin-4-yl]-6-methyl-isochroman-5-ol dihydrobromide] | – | 45 nM | –
7 | Cc1ccc2c(c1O)C[C@@H](C1CCN(CCCc3ccccc3)CC1)O[C@H]2CN [Example 110, (1R,3S)-1-Aminomethyl-6-methyl-3-[1-(3-phenyl-propyl)-piperidin-4-yl]-isochroman-5-ol dihydrochloride] | – | 6 nM | –
8 | Cc1ccccc1CN1CCC([C@@H]2Cc3c(ccc(C)c3O)[C@H](CN)O2)CC1 [Example 64, (1R,3S)-1-Aminomethyl-6-methyl-3-[1-(2-methyl-benzyl)-piperidin-4-yl]-isochroman-5-ol dihydrochloride] | 198 nM | – | 576 nM
9 | CNC[C@@H]1O[C@H](C2CCN(CC3CCCCC3)CC2)Cc2c1ccc(C)c2O [Example 96, (1R,3S)-3-(1-Cyclohexylmethyl-piperidin-4-yl)-6-methyl-1-methylaminomethyl-isochroman-5-ol dihydrochloride] | 265 nM | – | 552 nM
10 | CCC(NC(=O)c1ccc(C)cc1)C(C)CN1CCC([C@@H]2Cc3c(ccc(C)c3O)[C@H](CN)O2)CC1 (stereo partly drawn) [Example 14, N-{3-[4-((1R,3S)-1-Aminomethyl-5-hydroxy-6-methyl-isochroman-3-yl)-piperidin-1-yl]-1-ethyl-2-methyl-propyl}-4-methyl-benzamide dihydrochloride] | 274 nM | – | ≥ 100000 nM
11 | Cc1ccc2c(c1O)C[C@@H](C1CCN(S(=O)(=O)c3ccc(Cl)cc3)CC1)O[C@H]2CN [Example 148, (1R,3S)-1-Aminomethyl-3-[1-(4-chloro-benzenesulfonyl)-piperidin-4-yl]-6-methyl-isochroman-5-ol hydrochloride] | 183 nM | – | ≥ 100000 nM
12 | Cc1ccc2c(c1O)C[C@@H](C1CCN(S(=O)(=O)N(C)C)CC1)O[C@H]2CN [Example 164, 4-((1R,3S)-1-Aminomethyl-5-hydroxy-6-methyl-isochroman-3-yl)-piperidine-1-sulfonic acid dimethylamide hydrochloride] | 400 nM | – | ≥ 100000 nM
13 | Cc1ccc2c(c1O)C[C@@H](C1CCN(Cc3ccccc3)CC1)O[C@H]2CNC1CCC1 [Example 177, (1R,3S)-3-(1-Benzyl-piperidin-4-yl)-1-cyclobutylaminomethyl-6-methyl-isochroman-5-ol] | ≥ 10000 nM | – | 305 nM
14 | Cc1ccc2c(c1O)C[C@@H](C1CCN(Cc3ccc(F)c(C(F)(F)F)c3)CC1)O[C@H]2CN [Example 83, (1R,3S)-1-Aminomethyl-3-[1-(4-fluoro-3-trifluoromethyl-benzyl)-piperidin-4-yl]-6-methyl-isochroman-5-ol dihydrochloride] | 15.9 nM | – | 611 nM
15 | CCNC[C@@H]1O[C@H](C2CCN(Cc3ccccc3)CC2)Cc2c1ccc(C)c2O [Example 172, (1R,3S)-3-(1-Benzyl-piperidin-4-yl)-1-ethylaminomethyl-6-methyl-isochroman-5-ol] | 522 nM | – | 279 nM
16 | Cc1ccc2c(c1O)C[C@@H](C1CCN(S(=O)(=O)c3ccccc3)CC1)O[C@H]2CN [Example 141, (1R,3S)-1-Aminomethyl-3-(1-benzenesulfonyl-piperidin-4-yl)-6-methyl-isochroman-5-ol hydrochloride] | 193 nM | – | ≥ 100000 nM
17 | COc1ccccc1CN1CCC([C@@H]2Cc3c(ccc(C)c3O)[C@H](CN)O2)CC1 [Example 68, (1R,3S)-1-Aminomethyl-3-[1-(2-methoxy-benzyl)-piperidin-4-yl]-6-methyl-isochroman-5-ol dihydrochloride] | 96.7 nM | – | 232 nM
18 | Cc1ccc2c(c1O)C[C@@H](C1CCN(CCC(C)NC(=O)c3ccc(-c4ccccc4)cc3)CC1)O[C@H]2CN (stereo partly drawn) [Example 18, Biphenyl-4-carboxylic acid {3-[4-((1R,3S)-1-aminomethyl-5-hydroxy-6-methyl-isochroman-3-yl)-piperidin-1-yl]-1-methyl-propyl}-amide dihydrochloride] | 244 nM | – | 389 nM
19 | CCCN(C)C[C@@H]1O[C@H](C2CCN(Cc3ccccc3)CC2)Cc2c1ccc(C)c2O [Example 175, (1R,3S)-3-(1-Benzyl-piperidin-4-yl)-6-methyl-1-[(methyl-propyl-amino)-methyl]-isochroman-5-ol] | 3070 nM | – | ≥ 10000 nM
20 | Cc1ccc2c(c1O)C[C@@H](C1CCN(S(=O)(=O)Cc3ccc(Cl)c(Cl)c3)CC1)O[C@H]2CN [Example 160, (1R,3S)-1-Aminomethyl-3-[1-(3,4-dichloro-phenylmethanesulfonyl)-piperidin-4-yl]-6-methyl-isochroman-5-ol hydrochloride] | 264 nM | – | ≥ 100000 nM
21 | Cc1ccc2c(c1O)C[C@@H](C1CCN(Cc3ccc(C(F)(F)F)c(F)c3)CC1)O[C@H]2CN [Example 82, (1R,3S)-1-Aminomethyl-3-[1-(3-fluoro-4-trifluoromethyl-benzyl)-piperidin-4-yl]-6-methyl-isochroman-5-ol dihydrochloride] | 15.6 nM | – | ≥ 10000 nM
